Laboratory results: patent publication US20230416205A1, “COMPOUNDS, COMPOSITIONS, AND METHODS” (Denali Therapeutics Inc, priority 2020, published 2023)
Where two headings read alike, the source gives them in different places.

Tested on: NLRP3
Test: IL-1β secretion assay in PMA-differentiated, LPS/nigericin-stimulated THP-1 cells (384-well, ELISA read-out)
Type: cell-based, human
Conditions: Homo sapiens
Outline: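 THP-1 cells differentiated with PMA (5 ng/mL, 40 h), primed in serum-free medium with 25 ng/mL LPS for 2 h, treated with compounds 1 h (0.5% DMSO), then stimulated with nigericin for 2 h at 37 °C. Supernatant IL-1β measured by ELISA; responses normalized to LPS+5 μM nigericin and LPS-only controls.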

[1] = THP-1, IL-1β secretion, PMA-differentiated THP-1 cells, LPS then nigericin stimulation, ELISA read at 450 nm, read-out: Activity
[2] = THP-1, Table 4, IL-1β secretion, LPS/nigericin-stimulated THP-1 cells, read-out: IC50

Structure (SMILES)	IC50 [1] [µM]	IC50 [2] [µM]
N#CC1CC(NC(=O)CN2CC3(CC3)c3cc(Br)ccc3C2=O)C1 (stereo not shown) [Example 65, 2-(6-bromo-1-oxo-spiro[3H-isoquinoline-4,1′-cyclopropane]-2-yl)-N-(3-cyanocyclobutyl)acetamide]	< 10	6.86
CC(C)(O)C1CCN(C(=O)CN2CC3(CC3)c3cc(Br)ccc3C2=O)C1 (stereo not shown) [Example 66, 6-bromo-2-[2-[3-(1-hydroxy-1-methyl-ethyl)pyrrolidin-1-yl]-2-oxo-ethyl]spiro[3H-isoquinoline-4,1′-cyclopropane]-1-one]	> 15	26.2
O=C(CN1CC2(CC2)c2cc(Br)ccc2C1=O)NC1CC(F)(F)C1 [Example 67, 2-(6-bromo-1-oxo-spiro[3H-isoquinoline-4,1′-cyclopropane]-2-yl)-N-(3,3-difluorocyclobutyl)acetamide]	< 10	8.75
CC1(O)CCN(C(=O)CN2CC3(CC3)c3cc(Br)ccc3C2=O)C1 (stereo not shown) [Example 68, 6-bromo-2-[2-(3-hydroxy-3-methyl-pyrrolidin-1-yl)-2-oxo-ethyl]spiro[3H-isoquinoline-4,1′-cyclopropane]-1-one]	> 15	28.6
CC1CN(CC(=O)NC2CC(C)(O)C2)C(=O)c2ccc(Br)cc21 (stereo not drawn) [Example 69, 2-(6-bromo-4-methyl-1-oxo-3,4-dihydroisoquinolin-2-yl)-N-(cis-3-hydroxy-3-methyl-cyclobutyl)acetamide]	< 10	0.643
O=C(CN1CC2(CC2)c2cc(Br)ccc2C1=O)N[C@@H]1CCCN(C2CCC2)C1 [Example 70, 2-(6-bromo-1-oxo-spiro[3H-isoquinoline-4,1′-cyclopropane]-2-yl)-N-[(3R)-1-cyclobutyl-3-piperidyl]acetamide]	< 10	0.191
COC(=O)N1CCC[C@@H](NC(=O)CN2CC3(CC3)c3cc(Br)ccc3C2=O)C1 [Example 71, methyl (3R)-3-[[2-(6-bromo-1-oxo-spiro[3H-isoquinoline-4,1′-cyclopropane]-2-yl)acetyl]amino]piperidine-1-carboxylate]	< 10	6.96
N#Cc1ccc(NC(=O)CN2CC3(CC3)c3cc(Br)ccc3C2=O)nc1 [Example 72, 2-(6-bromo-1-oxospiro[3H-isoquinoline-4,1′-cyclopropane]-2-yl)-N-(5-cyanopyridin-2-yl)acetamide]	< 10	0.511
Cn1cc(NC(=O)CN2CC3(CC3)c3cc(Br)ccc3C2=O)ccc1=O [Example 73, 2-(6-bromo-1-oxo-spiro[3H-isoquinoline-4,1′-cyclopropane]-2-yl)-N-(1-methyl-6-oxo-3-pyridyl)acetamide]	10 to 15	11.5
CC1CN(CC(=O)Nc2ncccn2)C(=O)c2ccc(Br)cc21 (stereo not shown) [Example 74, 2-(6-bromo-4-methyl-1-oxo-3,4-dihydroisoquinolin-2-yl)-N-pyrimidin-2-yl-acetamide]	< 10	1.76
O=C(CN1CC2(CCCC2)c2cc(Br)ccc2C1=O)Nc1ncccn1 [Example 75, 2-(6-bromo-1-oxo-spiro[3H-isoquinoline-4,1′-cyclopentane]-2-yl)-N-pyrimidin-2-yl-acetamide]	10 to 15	12.3
CC1N(CC(=O)Nc2ncccn2)C(=O)c2ccc(C(F)(F)F)cc2C12CC2 (stereo not shown) [Example 76, 2-[3-methyl-1-oxo-6-(trifluoromethyl)spiro[3H-isoquinoline-4,1′-cyclopropane]-2-yl]-N-pyrimidin-2-ylacetamide]	> 15	16.2
O=C1c2ccc(Br)cc2C2(CC2)CN1C1(C(=O)Nc2ncccn2)CC1 [Example 77, 1-(6-bromo-1-oxospiro[3H-isoquinoline-4,1′-cyclopropane]-2-yl)-N-pyrimidin-2-ylcyclopropane-1-carboxamide]	< 10	3.72
O=C(CN1C[C@]2(C[C@H]2F)c2cc(Br)ccc2C1=O)Nc1ncc(F)cn1 [Example 79, 2-[(2′R,4S)-6-bromo-2′-fluoro-1-oxospiro[3H-isoquinoline-4,1′-cyclopropane]-2-yl]-N-(5-fluoropyrimidin-2-yl)acetamide]	< 10	0.015
O=C(CN1CC2(CC23CC3)c2cc(Br)ccc2C1=O)Nc1ncc(F)cn1 (stereo not shown) [Example 81, N-(5-fluoropyrimidin-2-yl)-2-(6-bromo-1-oxospiro[3H-isoquinoline-4,1′-(spiro[2.2]pentan-1-yl)]-2-yl)acetamide]	< 10	2.56
O=C(CN1CC2(CC2)c2cc(OCF)ccc2C1=O)Nc1ncccn1 [Example 82, 2-[6-(fluoromethoxy)-1-oxospiro[3H-isoquinoline-4,1′-cyclopropane]-2-yl]-N-pyrimidin-2-ylacetamide]	< 10	2.22

Structure (SMILES)	IC50 [1] [µM]	IC50 [2] [µM]
O=C(CN1CC2(CC2)c2c(ccc(Br)c2Cl)C1=O)Nc1ncc(F)cn1 [Example 83, 2-(6-bromo-5-chloro-1-oxospiro[3H-isoquinoline-4,1′-cyclopropane]-2-yl)-N-(5-fluoropyrimidin-2-yl)acetamide]	< 10	0.521
O=C(CN1CC2(CC2)c2cc(C(F)(F)F)c(F)cc2C1=O)Nc1ncc(F)cn1 [Example 84, 2-[7-fluoro-1-oxo-6-(trifluoromethyl)spiro[3H-isoquinoline-4,1′-cyclopropane]-2-yl]-N-(5-fluoropyrimidin-2-yl)acetamide]	< 10	5.98
N#Cc1cnc(NC(=O)CN2CC3(CC3)c3cc(C(F)(F)F)ccc3C2=O)c(F)c1 [Example 85, N-(5-cyano-3-fluoropyridin-2-yl)-2-[1-oxo-6-(trifluoromethyl)spiro[3H-isoquinoline-4,1′-cyclopropane]-2-yl]acetamide]	< 10	0.992
O=C(CN1C[C@@]2(C[C@@H]2C(F)(F)F)c2cc(Br)ccc2C1=O)Nc1ncc(F)cn1 [Example 86, 2-[(2′s,4r)-6-bromo-1-oxo-2′-(trifluoromethyl)spiro[3H-isoquinoline-4,1′-cyclopropane]-2-yl]-N-(5-fluoropyrimidin-2-yl)acetamide]	< 10	2.81
O=C(CN1CC2(CC2)c2cc(C3CCC3)ccc2C1=O)Nc1ncc(F)cn1 [Example 87, 2-(6-cyclobutyl-1-oxospiro[3H-isoquinoline-4,1′-cyclopropane]-2-yl)-N-(5-fluoropyrimidin-2-yl)acetamide]	< 10	5.39
O=C(CN1CC2(CC2)c2cc(C3CC3(F)F)ccc2C1=O)Nc1ncc(F)cn1 (stereo not shown) [Example 88, 2-[6-(2,2-difluorocyclopropyl)-1-oxo-spiro[3H-isoquinoline-4,1′-cyclopropane]-2-yl]-N-(5-fluoropyrimidin-2-yl)acetamide]	< 10	3.61
N#Cc1c(C(F)(F)F)ccc2c1C1(CC1)CN(CC(=O)Nc1ncc(F)cn1)C2=O [Example 89, 2-[5-cyano-1-oxo-6-(trifluoromethyl)spiro[3H-isoquinoline-4,1′-cyclopropane]-2-yl]-N-(5-fluoropyrimidin-2-yl)acetamide]	< 10	6.84
O=C(CN1CC2(CC2)c2cc(I)ccc2C1=O)Nc1ncc(F)cn1 [Example 90, N-(5-fluoropyrimidin-2-yl)-2-(6-iodo-1-oxospiro[3H-isoquinoline-4,1′-cyclopropane]-2-yl)acetamide]	< 10	0.034
COc1ccc2c(c1)C1(CC1)CN(CC(=O)Nc1ncccn1)C2=O [Example 91, 2-(6-methoxy-1-oxospiro[3H-isoquinoline-4,1′-cyclopropane]-2-yl)-N-pyrimidin-2-ylacetamide]	< 10	3.21
O=C(CN1CC2(COC2)c2cc(Br)ccc2C1=O)Nc1ncccn1 [Example 92, 2-(6-bromo-1-oxospiro[3H-isoquinoline-4,3′-oxetane]-2-yl)-N-pyrimidin-2-ylacetamide]	< 10	4.46
N#CC1(c2ccc3c(c2)C2(CC2)CN(CC(=O)Nc2ncc(F)cn2)C3=O)CC1 [Example 93, 2-[6-(1-cyanocyclopropyl)-1-oxospiro[3H-isoquinoline-4,1′-cyclopropane]-2-yl]-N-(5-fluoropyrimidin-2-yl)acetamide]	< 10	2.28
O=C(CN1CC2(CC2)c2cc(Cl)ccc2C1=O)Nc1ncc(F)cn1 [Example 94, 2-(6-chloro-1-oxospiro[3H-isoquinoline-4,1′-cyclopropane]-2-yl)-N-(5-fluoropyrimidin-2-yl)acetamide]	< 10	0.369
O=C(CN1CC(C(F)F)c2cc(Br)ccc2C1=O)Nc1ncc(F)cn1 (stereo not shown) [Example 95, 2-[6-bromo-4-(difluoromethyl)-1-oxo-3,4-dihydroisoquinolin-2-yl]-N-(5-fluoropyrimidin-2-yl)acetamide]	< 10	0.32
O=C(CN1CC2(CC2)c2cc(C(F)F)ccc2C1=O)Nc1ncc(F)cn1 [Example 96, 2-[6-(difluoromethyl)-1-oxospiro[3H-isoquinoline-4,1′-cyclopropane]-2-yl]-N-(5-fluoropyrimidin-2-yl)acetamide]	< 10	1.33
CC1(c2ccc3c(c2)C2(CC2)CN(CC(=O)Nc2ncc(F)cn2)C3=O)CC1 [Example 97, N-(5-fluoropyrimidin-2-yl)-2-[6-(1-methylcyclopropyl)-1-oxospiro[3H-isoquinoline-4,1′-cyclopropane]-2-yl]acetamide]	< 10	1.22
O=C(CN1CC2(CC2)c2c(ccc(Cl)c2F)C1=O)Nc1ncc(F)cn1 [Example 98, 2-(6-chloro-5-fluoro-1-oxospiro[3H-isoquinoline-4,1′-cyclopropane]-2-yl)-N-(5-fluoropyrimidin-2-yl)acetamide]	< 10	0.349
